From PMC6327999, “Hydroxyl-substituted double Schiff-base condensed 4-piperidone/cyclohexanones as potential anticancer agents with biological evaluation” (Journal of Enzyme Inhibition and Medicinal Chemistry, 2019)
Like-named read-outs stand apart in the source and are kept apart here.

Columns and labels:
Format in all cases: cell-based
[1] = test system: human carcinoma cell lines A549, SGC7901, HePG2, HeLa, K562, THP-1; assay: Cytotoxicity, MTT assay, panel of human carcinoma cell lines (average / overall); conditions: for IC50: Homo sapiens
From the text: (§1) Compounds 2a–d, 3a–e, 4a–e, 5a–d, and 6a–c were screened against human neoplastic cell lines such as human lung carcinoma cells (A549), human gastric adenocarcinoma cells (SGC7901), human cervical carcinoma cells (HeLa), human liver hepatocellular carcinoma cell line (Hepg2), human chronic myelogenous leukemia cell line (K562), human acute mononuclear granulocyte leukemia (THP-1), human normal heptical cell line (LO2) (Table 1) using modified MTT assay (3-(4,5-dimethyl-2-thiazolyl)-2,5-diphenyl-2-H-tetrazolium bromide, MTT, Dojindo Laboratories, Tokyo, Japan). All cell lines were maintained at 37 °C in a humidified 5% CO2 and 95% air atmosphere. The HePG2 cell lines were cultured in DMEM containing 10% fetal bovine serum. Other cell lines were grown in medium 1640 and supplemented with 10% fetal bovine serum. […] Controls were prepared with 0.1% DMSO (v/v) only. The cells were seeded in a 96-well plate in 200 µL medium per well at a density of 1 × 10^4 cells/well for 24 hours. The cells were treated with serial concentrations of compound and incubated for 24 hours. Cells with only culture media were used as control. After the media was removed, 20 µL of MTT (5 mg/mL) was added then the plates were incubated for 4 hours at 37 °C in cell culture incubator. The MTT containing media were removed and then 150 µL of DMSO was added to dissolve the dark-blue formazan crystals. The optical density (OD) was measured by a multi-well plate reader (TECAN, Männedorf, Switzerland) at 570 nm. The results are expressed as a decrease in the cell viability (%) in comparison to untreated controls. The concentration of each compound was examined in triplicate, and the IC50 values are expressed in Table 1. The concentrations of the compounds were 50, 20, 10, 5, 2.5, 1, 0.5, 0.1, 0.05 and 0.01 µg/mL. Doxorubicin (DOX) and Curcumin were used as positive controls. […] The concentrations of curcumin used were 100, 50, 25, 12.5, 6.25, 3.125, 1, 0.5 and 0.1 µg/mL.
The cytotoxicity activities against human carcinoma cell lines A549, SGC7901, HePG2, HeLa, K562, THP-1 and cytotoxicity toward LO2 cell lines were evaluated by MTT method. DOX and curcumin were used as positive control. The selectivity index (SI) is the quotient of the IC50 values towards nonmalignant LO2 cells. […] Especially for 4a–e, 5a–d, and 6a–c, this ratio can reach about 92%.

[2] = test system: human lung carcinoma cells (A549); assay: Cytotoxicity, MTT assay, A549
From the text: as §1

[3] = test system: human chronic myelogenous leukemia cell line (K562); assay: Cytotoxicity, MTT assay, K562
From the text: as §1

[4] = test system: human gastric adenocarcinoma cells (SGC7901); assay: Cytotoxicity, MTT assay, SGC7901
From the text: as §1

[5] = test system: human normal heptical cell line (LO2); assay: Cytotoxicity, MTT assay, non-malignant LO2; conditions: 24 hours, non-malignant cells
From the text: as §1

[6] = test system: human acute mononuclear granulocyte leukemia (THP-1); assay: Cytotoxicity, MTT assay, THP-1
From the text: as §1

[7] = quotient of the IC50 values towards nonmalignant LO2 cells

O=C1/C(=C/c2cc(/N=C/c3ccc(O)c(O)c3O)ccc2F)CNC/C1=C\c1cc(/N=C/c2ccc(O)c(O)c2O)ccc1F [5c]
IC50 ([1]; average over the six carcinoma cell lines, read-out: Ave IC50): 1200 nM | IC50 ([1]; statement for all experimental carcinoma cell lines, read-out: IC50 values against human carcinoma cell lines): < 2000 nM | Ave SI ([1]; average over the six carcinoma cell lines): 14.1 | IC50 ([2]; Homo sapiens, A549, MTT, 24 hours): 1400 ± 200 nM | A549 SI [2, 7]: 10.7 | IC50 ([3]; Homo sapiens, K562, MTT, 24 hours): 1300 ± 100 nM | K562 SI [3, 7]: 11.8 | IC50 ([4]; Homo sapiens, SGC-7901, MTT, 24 hours): 1400 ± 100 nM | SGC7901 SI [4, 7]: 11.1 | IC50 [5]: 15200 ± 600 nM | IC50 ([6]; Homo sapiens, THP-1, MTT, 24 hours): 900 ± 200 nM | THP-1 SI [6, 7]: 17.0
